Patent US20110233810A1, “ANTIMICROBIAL PLASTIC COMPOSITIONS AND METHODS FOR PREPARING SAME” (W. M. Barr & Company, priority 2010, published 2011)

Columns and labels:
Rat = settings: cited from earlier work
Rabbit = settings: cited from earlier work
[1] = heavy gauge vinyl pool liner and film of vinyl baby pants; cited from earlier work
[2] = monomeric form; cited from earlier work
Staphylococcus aureus = test: Zone of Inhibition testing AATCC-147 (modified), pellets in agar; type: cell-based; settings: text summary of Table VIII
Procedure: A set of AETs run measured Zone of Inhibition, ZOI (AATCC-147) and pellets from runs 1 to 5 were used. Pellets were placed in an agar growth medium that had been streaked with parallel lines of Staphylococcus aureus and incubated for 24 hours at 37° C. The final plates were photographed and measured for length of ZOI in mm.

## c1ccc2c(c1)Oc1ccccc1[As]2O[As]1c2ccccc2Oc2ccccc21 [OBPA, 10,10′-oxybisphenoxarsine]
Rat
  Oral LD50: 37 mg/kg
Rabbit
  Dermal LD50: 121 mg/kg
[1]
  Leaching from plastics: leaches very slowly

## CCCCCCCCCCCCCCCCCC[N+](C)(C)CCC[Si](OC)(OC)OC.[Cl-] [Ref #1, 3-(trimethoxysilyl) propyl-N-octadecyl-N,N-dimethyl ammonium chloride]
[2]
  Vapor pressure: 5.8 × 10^−14 mmHg

## Oc1cc(Cl)ccc1Oc1ccc(Cl)cc1Cl [TRICLOSAN, 2,4,4′-trichloro-2′-hydroxy diphenol ether]
Staphylococcus aureus
  ZOI (in words): significant ZOI
